We go through 15 compounds from patent US7074789B2, “Kinase inhibitors” (Amgen Inc., priority 1999, dated 2006).

Holding throughout (assay type): biochemical
The target of one test is T1, c-Met (Homo sapiens, UniProt P08581).
T1 construct: Kinases are expressed as either kinase domains or full length constructs; made in house
The test is described as follows: Kinase inhibition assay (33P transfer), c-Met. As to conditions: Table 2, class symbols A-E; read-out: Met-1. The procedure, abridged: (§1)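 Each enzyme, purified to near homogeneity by affinity chromatography, was incubated with ATP carrying 33P and a substrate polymer fixed to the plate. Unbound label was removed with dilute phosphoric acid (0.5%) before adding scintillant and counting. Potency is given as the compound level cutting label uptake by 50%.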

A further test deals with T2, IGFR-1 (Homo sapiens, UniProt P08069).
T2 construct: Kinases are expressed as either kinase domains or full length constructs; made in house
The test is described as follows: Kinase inhibition assay (33P transfer), IGFR-1. As to conditions: Table 2, class symbols A-E.

In a further test the target is T3, AKT (Homo sapiens, UniProt Q9Y243).
T3 construct: Kinases are expressed as either kinase domains or full length constructs; made in house
The test is described as follows: Kinase inhibition assay (33P transfer), AKT. Particulars: Table 2, class symbols A-E; read-out: AKT3-1. The procedure, abridged:
(§2)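 GST/His-tagged kinase (domain or full length; E. coli or baculovirus) + [33P]ATP on plates coated with poly(Glu,Tyr) 4:1 or poly(Arg,Ser) 3:1; incubate, wash 0.5% H3PO4, add scintillant, count.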

For the next test, the target named is T4, Zap-70 (Homo sapiens, UniProt P43403).
T4 construct: Kinases are expressed as either kinase domains or full length constructs; made in house
T4 sequence (P43403 1-619): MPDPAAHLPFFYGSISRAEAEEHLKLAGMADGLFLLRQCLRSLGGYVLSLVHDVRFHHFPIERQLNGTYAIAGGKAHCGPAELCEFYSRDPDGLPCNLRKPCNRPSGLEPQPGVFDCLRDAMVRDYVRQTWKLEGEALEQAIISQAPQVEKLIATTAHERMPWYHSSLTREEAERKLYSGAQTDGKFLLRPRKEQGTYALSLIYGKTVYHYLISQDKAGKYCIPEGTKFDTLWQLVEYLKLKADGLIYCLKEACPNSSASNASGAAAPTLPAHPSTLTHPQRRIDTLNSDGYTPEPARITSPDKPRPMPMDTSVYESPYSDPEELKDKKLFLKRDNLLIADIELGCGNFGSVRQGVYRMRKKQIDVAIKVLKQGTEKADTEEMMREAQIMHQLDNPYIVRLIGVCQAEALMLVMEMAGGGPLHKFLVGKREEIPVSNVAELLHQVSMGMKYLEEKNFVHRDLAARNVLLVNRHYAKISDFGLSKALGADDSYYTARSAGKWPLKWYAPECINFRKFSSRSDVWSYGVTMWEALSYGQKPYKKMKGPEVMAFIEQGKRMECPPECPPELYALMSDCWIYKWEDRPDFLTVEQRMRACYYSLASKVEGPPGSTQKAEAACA
The test can be described thus: Kinase inhibition assay (33P transfer), Zap-70. Particulars: Table 3, class symbols; read-out: Zap-1. The procedure, abridged: as §2

The next test concerns the target T5, ErbB2 (Homo sapiens, UniProt P04626).
T5 construct: Kinases are expressed as either kinase domains or full length constructs; made in house
The test can be described thus: Kinase inhibition assay (33P transfer), ErbB2. As to conditions: read-out: ErbB2-2. The method in brief: as §1

The next test addresses T6, PDGFRB (Homo sapiens, UniProt P09619).
T6 construct: Kinases are expressed as either kinase domains or full length constructs; made in house
The test can be described thus: Kinase inhibition assay (33P transfer), PDGFRB. As to conditions: read-out: PDGFRB-1.

The target in a further test is T7, EGFR (Homo sapiens, UniProt P00533).
T7 construct: Kinases are expressed as either kinase domains or full length constructs; made in house
The test can be described thus: Kinase inhibition assay (33P transfer), EGFR. Particulars: Table 2, class symbols A-E; read-out: EGFR-1. The procedure, abridged:
as §1

The next test has as its target T8, Itk (Homo sapiens, UniProt Q08881).
T8 construct: Kinases are expressed as either kinase domains or full length constructs; made in house
T8 sequence (Q08881 1-620): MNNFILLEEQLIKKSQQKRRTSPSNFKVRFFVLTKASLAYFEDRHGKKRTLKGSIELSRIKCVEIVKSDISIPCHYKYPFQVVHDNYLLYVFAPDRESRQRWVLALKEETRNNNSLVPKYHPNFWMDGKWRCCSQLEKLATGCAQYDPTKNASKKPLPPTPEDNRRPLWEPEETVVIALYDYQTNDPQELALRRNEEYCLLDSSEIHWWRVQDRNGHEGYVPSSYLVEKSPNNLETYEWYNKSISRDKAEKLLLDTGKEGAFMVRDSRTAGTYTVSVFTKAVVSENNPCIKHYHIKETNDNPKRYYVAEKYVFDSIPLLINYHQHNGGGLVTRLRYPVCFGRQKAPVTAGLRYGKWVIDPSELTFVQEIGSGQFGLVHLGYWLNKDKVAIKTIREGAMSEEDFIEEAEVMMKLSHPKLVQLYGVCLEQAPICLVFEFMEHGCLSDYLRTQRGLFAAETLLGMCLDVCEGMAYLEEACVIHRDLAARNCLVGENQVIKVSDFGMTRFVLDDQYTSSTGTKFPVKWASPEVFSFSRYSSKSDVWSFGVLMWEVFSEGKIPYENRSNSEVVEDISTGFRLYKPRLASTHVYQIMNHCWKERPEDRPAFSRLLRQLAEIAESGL
The test is described as follows: Kinase inhibition assay (33P transfer), Itk. As to conditions: Table 3, class symbols; read-out: Itk-1. The method in brief:
as §1

A further test concerns the target T9, Lck (Homo sapiens, UniProt P06239).
T9 construct: Kinases are expressed as either kinase domains or full length constructs; made in house
The test is described as follows: Kinase inhibition assay (33P transfer), Lck. Particulars: Table 3, class symbols; read-out: Lck-1. The method in brief:
as §2

For the next test, the target named is T10, Kdr (Homo sapiens, UniProt P35968).
T10 construct: Kinases are expressed as either kinase domains or full length constructs; made in house
The test can be described thus: Kinase inhibition assay (33P transfer), Kdr. As to conditions: Table 3, class symbols; read-out: KDR-1. The procedure, abridged:
as §2

T7 sequence (P00533 25-1210, species assumed): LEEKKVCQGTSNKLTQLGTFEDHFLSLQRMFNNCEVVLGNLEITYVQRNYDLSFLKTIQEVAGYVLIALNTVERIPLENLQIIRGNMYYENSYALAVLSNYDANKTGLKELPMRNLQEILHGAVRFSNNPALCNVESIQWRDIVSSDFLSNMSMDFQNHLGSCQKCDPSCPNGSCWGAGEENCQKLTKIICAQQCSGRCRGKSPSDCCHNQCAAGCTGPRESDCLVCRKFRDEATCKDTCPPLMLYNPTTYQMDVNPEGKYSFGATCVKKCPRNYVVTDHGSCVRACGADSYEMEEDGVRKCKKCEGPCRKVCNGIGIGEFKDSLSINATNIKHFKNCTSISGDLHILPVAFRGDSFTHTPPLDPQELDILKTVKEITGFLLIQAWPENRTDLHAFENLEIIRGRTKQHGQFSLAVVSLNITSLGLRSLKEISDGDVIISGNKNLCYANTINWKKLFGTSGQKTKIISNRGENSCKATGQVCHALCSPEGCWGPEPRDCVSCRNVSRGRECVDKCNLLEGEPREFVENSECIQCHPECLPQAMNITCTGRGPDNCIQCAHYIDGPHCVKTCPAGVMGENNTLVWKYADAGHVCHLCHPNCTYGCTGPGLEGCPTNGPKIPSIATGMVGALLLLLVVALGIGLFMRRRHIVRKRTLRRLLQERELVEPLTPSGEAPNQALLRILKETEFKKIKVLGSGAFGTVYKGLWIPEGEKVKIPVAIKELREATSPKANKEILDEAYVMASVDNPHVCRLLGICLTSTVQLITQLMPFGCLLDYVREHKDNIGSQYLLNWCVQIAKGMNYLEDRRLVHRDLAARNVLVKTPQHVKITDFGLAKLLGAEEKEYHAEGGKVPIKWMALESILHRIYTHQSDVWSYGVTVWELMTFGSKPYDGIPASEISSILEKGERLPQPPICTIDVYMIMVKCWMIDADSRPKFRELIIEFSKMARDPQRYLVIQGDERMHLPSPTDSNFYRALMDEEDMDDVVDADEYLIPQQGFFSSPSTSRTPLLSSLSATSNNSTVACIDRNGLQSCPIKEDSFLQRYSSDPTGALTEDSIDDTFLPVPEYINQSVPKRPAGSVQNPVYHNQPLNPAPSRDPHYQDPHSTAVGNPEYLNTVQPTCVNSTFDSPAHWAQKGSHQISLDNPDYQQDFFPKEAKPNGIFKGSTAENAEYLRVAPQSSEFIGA
T3 sequence (Q9Y243 whole entry, the tested form may be a part): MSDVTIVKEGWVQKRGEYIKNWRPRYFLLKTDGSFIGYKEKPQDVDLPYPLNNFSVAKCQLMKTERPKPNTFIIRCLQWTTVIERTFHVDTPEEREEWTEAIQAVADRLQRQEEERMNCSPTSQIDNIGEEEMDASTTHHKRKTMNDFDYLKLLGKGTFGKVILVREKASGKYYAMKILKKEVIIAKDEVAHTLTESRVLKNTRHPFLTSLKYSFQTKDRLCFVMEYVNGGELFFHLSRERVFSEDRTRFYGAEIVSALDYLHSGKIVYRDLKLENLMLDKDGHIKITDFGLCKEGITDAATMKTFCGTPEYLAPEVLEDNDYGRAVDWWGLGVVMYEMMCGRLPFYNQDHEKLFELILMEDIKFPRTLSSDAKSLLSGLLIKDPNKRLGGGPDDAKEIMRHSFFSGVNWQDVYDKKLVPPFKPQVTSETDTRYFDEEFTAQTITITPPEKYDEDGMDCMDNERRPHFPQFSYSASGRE
T10 sequence (P35968 20-1356, species assumed): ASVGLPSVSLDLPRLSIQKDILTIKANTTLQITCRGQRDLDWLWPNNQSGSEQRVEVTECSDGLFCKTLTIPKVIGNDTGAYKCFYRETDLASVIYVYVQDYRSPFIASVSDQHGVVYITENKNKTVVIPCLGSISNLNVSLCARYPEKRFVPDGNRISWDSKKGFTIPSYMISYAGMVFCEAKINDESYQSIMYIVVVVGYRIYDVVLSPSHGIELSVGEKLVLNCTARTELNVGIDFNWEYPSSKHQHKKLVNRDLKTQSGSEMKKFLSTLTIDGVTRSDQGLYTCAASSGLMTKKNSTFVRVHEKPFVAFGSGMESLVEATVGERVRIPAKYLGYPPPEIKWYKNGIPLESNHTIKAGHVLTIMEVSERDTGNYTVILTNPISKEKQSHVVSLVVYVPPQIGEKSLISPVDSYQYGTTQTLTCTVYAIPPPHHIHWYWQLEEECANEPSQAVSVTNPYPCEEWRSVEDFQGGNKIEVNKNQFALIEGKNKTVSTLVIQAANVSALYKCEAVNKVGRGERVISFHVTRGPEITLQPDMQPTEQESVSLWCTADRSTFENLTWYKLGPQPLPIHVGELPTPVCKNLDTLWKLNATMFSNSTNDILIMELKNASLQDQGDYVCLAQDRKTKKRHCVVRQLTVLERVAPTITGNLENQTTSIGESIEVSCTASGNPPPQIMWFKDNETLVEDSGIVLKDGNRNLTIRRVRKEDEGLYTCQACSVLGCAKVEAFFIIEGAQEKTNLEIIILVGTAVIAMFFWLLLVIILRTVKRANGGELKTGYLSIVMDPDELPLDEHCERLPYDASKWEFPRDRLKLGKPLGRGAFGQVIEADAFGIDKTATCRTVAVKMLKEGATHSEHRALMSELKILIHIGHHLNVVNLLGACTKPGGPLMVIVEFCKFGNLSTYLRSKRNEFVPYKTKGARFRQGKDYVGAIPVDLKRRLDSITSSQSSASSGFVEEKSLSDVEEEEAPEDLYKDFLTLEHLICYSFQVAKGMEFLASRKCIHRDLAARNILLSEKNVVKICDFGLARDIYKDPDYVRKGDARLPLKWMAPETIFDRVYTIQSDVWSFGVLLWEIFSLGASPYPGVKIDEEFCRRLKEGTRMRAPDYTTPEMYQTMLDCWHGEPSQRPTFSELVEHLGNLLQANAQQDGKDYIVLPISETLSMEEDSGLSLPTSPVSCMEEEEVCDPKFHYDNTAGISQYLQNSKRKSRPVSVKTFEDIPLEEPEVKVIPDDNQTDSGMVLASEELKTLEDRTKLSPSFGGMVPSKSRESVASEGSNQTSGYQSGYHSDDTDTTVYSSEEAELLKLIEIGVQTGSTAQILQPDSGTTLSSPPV
T6 sequence (P09619 33-1106, species assumed): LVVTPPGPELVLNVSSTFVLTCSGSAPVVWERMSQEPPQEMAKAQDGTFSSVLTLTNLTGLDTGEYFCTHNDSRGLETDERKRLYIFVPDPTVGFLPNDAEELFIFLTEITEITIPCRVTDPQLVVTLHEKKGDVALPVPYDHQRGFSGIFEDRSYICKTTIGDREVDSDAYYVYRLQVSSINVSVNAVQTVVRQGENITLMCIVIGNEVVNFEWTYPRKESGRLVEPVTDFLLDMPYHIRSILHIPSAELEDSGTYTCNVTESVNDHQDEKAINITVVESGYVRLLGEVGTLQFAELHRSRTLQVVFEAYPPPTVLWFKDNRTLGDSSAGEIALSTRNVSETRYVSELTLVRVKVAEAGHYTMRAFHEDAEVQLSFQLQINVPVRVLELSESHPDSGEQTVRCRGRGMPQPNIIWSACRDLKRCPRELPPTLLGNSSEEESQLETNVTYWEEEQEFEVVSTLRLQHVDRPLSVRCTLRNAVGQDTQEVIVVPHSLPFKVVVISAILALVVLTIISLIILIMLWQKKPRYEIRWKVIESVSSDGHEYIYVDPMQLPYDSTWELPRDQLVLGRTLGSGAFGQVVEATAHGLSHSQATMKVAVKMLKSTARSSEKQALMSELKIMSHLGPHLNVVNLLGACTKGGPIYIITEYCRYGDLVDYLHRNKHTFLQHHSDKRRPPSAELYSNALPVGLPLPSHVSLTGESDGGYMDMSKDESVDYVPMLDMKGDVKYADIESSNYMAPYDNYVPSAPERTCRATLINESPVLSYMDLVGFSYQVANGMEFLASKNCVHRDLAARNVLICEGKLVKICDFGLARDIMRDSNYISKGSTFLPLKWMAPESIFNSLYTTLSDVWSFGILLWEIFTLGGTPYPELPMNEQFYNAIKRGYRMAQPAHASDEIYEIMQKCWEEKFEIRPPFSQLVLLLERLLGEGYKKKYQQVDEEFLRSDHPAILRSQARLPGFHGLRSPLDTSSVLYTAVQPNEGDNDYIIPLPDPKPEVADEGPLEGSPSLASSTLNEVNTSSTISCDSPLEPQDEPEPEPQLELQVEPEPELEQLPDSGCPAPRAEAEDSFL
T9 sequence (P06239 whole entry, species assumed, the tested form may be a part): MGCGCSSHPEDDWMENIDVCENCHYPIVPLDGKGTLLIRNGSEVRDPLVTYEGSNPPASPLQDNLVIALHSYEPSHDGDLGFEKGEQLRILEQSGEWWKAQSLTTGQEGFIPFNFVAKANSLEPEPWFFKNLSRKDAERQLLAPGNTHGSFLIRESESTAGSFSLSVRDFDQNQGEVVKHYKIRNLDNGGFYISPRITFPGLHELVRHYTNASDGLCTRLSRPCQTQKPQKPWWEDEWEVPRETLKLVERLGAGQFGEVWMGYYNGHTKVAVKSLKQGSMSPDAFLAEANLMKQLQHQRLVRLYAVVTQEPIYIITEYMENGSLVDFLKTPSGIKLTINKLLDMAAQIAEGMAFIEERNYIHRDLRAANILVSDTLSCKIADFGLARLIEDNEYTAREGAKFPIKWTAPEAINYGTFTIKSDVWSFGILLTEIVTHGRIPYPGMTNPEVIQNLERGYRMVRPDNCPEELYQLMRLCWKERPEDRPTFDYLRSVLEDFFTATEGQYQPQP

`COC(=O)c1ccc(-c2cc(Nc3ncnc(NC4=NC(=O)CS4)n3)[nH]n2)cc1` [Compound 881]: the IC50 was 0.975 to 5.85 µM at c-Met; 0.975 to 5.85 µM on IGFR-1; above 11 µM on AKT; above 11 µM on Zap-70; 0.975 to 5.85 µM at ErbB2; 0.975 to 5.85 µM at PDGFRB. The IC50 on EGFR is 0.975 to 5.85 µM; on Itk, 0.975 to 5.85 µM; on Lck, above 11 µM; on Kdr, 0.975 to 5.85 µM.
Consider `CCOc1cccc(Nc2ncnc(Nc3cc(-c4ccc(C(=O)OC)cc4)n[nH]3)n2)c1` [Compound 812], for which the IC50 at c-Met was 0.927 to 5.56 µM; against IGFR-1, 0.927 to 5.56 µM; at AKT it was above 10.4 µM; on Zap-70 it was above 10.4 µM; at ErbB2, 5.56 to 8.11 µM; at PDGFRB it was above 10.4 µM. In addition, the IC50 was above 10.4 µM on EGFR, 8.11 to 10.4 µM at Itk, 0.927 to 5.56 µM at Lck and 8.11 to 10.4 µM at Kdr.
In the case of `COc1ccc(Nc2ncnc(NCc3ccc(C)c(Cl)c3)n2)cc1OC` [Compound 793], the IC50 on c-Met, against IGFR-1, on AKT, at Zap-70, on PDGFRB and at EGFR was above 11.7 µM in each case. The IC50 on Itk, on Lck and on Kdr was above 11.7 µM throughout.
In the case of `COc1cc(Nc2ncnc(-c3cccnc3N[C@H](C)c3ccccc3)n2)cc(OC)c1OC` [Compound 1110], the IC50 on c-Met was above 9.81 µM; on IGFR-1 it was above 9.81 µM; at AKT, above 9.81 µM; at Zap-70 it was above 9.81 µM; at ErbB2 it was above 9.81 µM; on EGFR it was 0.872 to 5.23 µM. The IC50 was above 9.81 µM on Itk, below 0.872 µM on Lck and 5.23 to 7.63 µM at Kdr.
As for `c1ccc(Nc2ncccc2-c2ncnc(Nc3ccc(N4CCOCC4)cc3)n2)cc1` [Compound 1113], the IC50 is 0.94 to 5.64 µM on c-Met; above 10.6 µM against IGFR-1; above 10.6 µM on AKT; 0.94 to 5.64 µM on Zap-70; 0.94 to 5.64 µM at ErbB2; 0.94 to 5.64 µM on EGFR. The IC50 was above 10.6 µM on Itk, 5.64 to 8.23 µM at Lck and 0.94 to 5.64 µM on Kdr.
With `Clc1cccc(Nc2ncnc(Nc3ccc4[nH]ncc4c3)n2)c1` [Compound 134], the IC50 on c-Met is below 1.18 µM; at IGFR-1, below 1.18 µM; on AKT it was 1.18 to 7.11 µM; at Zap-70 it was 1.18 to 7.11 µM; at ErbB2 it was 1.18 to 7.11 µM; at EGFR it was below 1.18 µM. Also, the results for the IC50 at Itk, on Lck and on Kdr were below 1.18 µM, 1.18 to 7.11 µM and below 1.18 µM, respectively.
As to `CN(c1cccc(Cl)c1)c1ncnc(Nc2ccc(OCCO)cc2)n1` [Compound 641], the IC50 is below 1.08 µM on c-Met; 1.08 to 6.45 µM against IGFR-1; above 12.1 µM on AKT; above 12.1 µM on Zap-70; 1.08 to 6.45 µM on ErbB2; below 1.08 µM at EGFR. In addition, the values for the IC50 on Itk, at Lck and on Kdr were above 12.1 µM, 1.08 to 6.45 µM and 1.08 to 6.45 µM, respectively.
With `COc1ccc(Nc2ncnc(Nc3ccc4c(c3)C(=O)N(C)C4=O)n2)cc1OC` [Compound 856], the IC50 on c-Met is above 11.1 µM; on IGFR-1, 5.91 to 8.61 µM; on AKT, above 11.1 µM; on Zap-70 it was above 11.1 µM; at ErbB2, 0.984 to 5.91 µM; on EGFR, above 11.1 µM. The IC50 on Itk, at Lck and at Kdr was above 11.1 µM each time.
Regarding `CN(c1ccc2c(cnn2Cc2ccccc2)c1)c1ncnc(Nc2cccc(Cn3ccnn3)c2)n1` [Compound 677], the IC50 was below 0.819 µM at c-Met; 4.91 to 7.16 µM at IGFR-1; above 9.21 µM at AKT; above 9.21 µM at Zap-70; below 0.819 µM at ErbB2; below 0.819 µM on EGFR. Besides, the results for the IC50 at Itk, at Lck and on Kdr were 4.91 to 7.16 µM, 0.819 to 4.91 µM and below 0.819 µM, respectively.
For the compound `COc1ccc(Nc2ncnc(N(C)c3ccc([N+](=O)[O-])cc3)n2)cc1OC` [Compound 862], the IC50 at c-Met is below 1.05 µM; against IGFR-1, above 11.8 µM; on AKT, above 11.8 µM; on Zap-70, above 11.8 µM; on ErbB2, above 11.8 µM; at EGFR, 1.05 to 6.28 µM. The IC50 at Itk, on Lck and at Kdr was above 11.8 µM throughout.
For `COc1cc(Nc2ncnc(-c3cccnc3N[C@@H](C)c3ccccc3)n2)cc(OC)c1OC` [Compound 1111], the IC50 was above 9.81 µM on c-Met; above 9.81 µM against IGFR-1; above 9.81 µM on AKT; above 9.81 µM at Zap-70; 5.23 to 7.63 µM on ErbB2; 0.872 to 5.23 µM at EGFR. The values for the IC50 at Itk, at Lck and at Kdr were above 9.81 µM, below 0.872 µM and below 0.872 µM, respectively.
For the compound `c1ccc(Cn2ncc3cc(Nc4ncnc(Nc5cccc(Cn6ccnn6)c5)n4)ccc32)cc1` [Compound 676], the IC50 at c-Met was 0.843 to 5.06 µM; at IGFR-1, 0.843 to 5.06 µM; at AKT, 5.06 to 7.38 µM; at Zap-70, above 9.48 µM; at ErbB2 it was below 0.843 µM; at EGFR, below 0.843 µM. In addition, the IC50 on Itk, on Lck and on Kdr was 0.843 to 5.06 µM throughout.
Take `COc1ccc(Nc2ncnc(NCCc3ccc(Cl)c(Cl)c3)n2)cc1OC` [Compound 859]: the IC50 on c-Met lay in the range of 0.952 to 5.71 µM; at IGFR-1, 5.71 to 8.33 µM; at AKT it was 0.952 to 5.71 µM; at Zap-70, 0.952 to 5.71 µM; at ErbB2, 0.952 to 5.71 µM; at EGFR it was 0.952 to 5.71 µM. Besides, the values for the IC50 on Itk, on Lck and on Kdr were 0.952 to 5.71 µM, above 10.7 µM and 5.71 to 8.33 µM, respectively.
Regarding `COc1ccc(N(C)c2ncnc(Nc3ccc(OC)c(OC)c3)n2)cc1` [Compound 863], the IC50 is 1.09 to 6.53 µM at c-Met; above 12.2 µM against IGFR-1; above 12.2 µM on AKT; above 12.2 µM at Zap-70; 6.53 to 9.53 µM on ErbB2; below 1.09 µM at EGFR. In addition, the IC50 at Itk is above 12.2 µM; on Lck it was 1.09 to 6.53 µM; at Kdr, 1.09 to 6.53 µM.
As to `COc1ccc(Nc2ncnc(NCC(=O)c3ccccc3)n2)cc1OC` [Compound 857], the IC50 was above 12.3 µM on c-Met; above 12.3 µM against IGFR-1; above 12.3 µM at AKT; above 12.3 µM at Zap-70; 6.57 to 9.58 µM on ErbB2; 6.57 to 9.58 µM at EGFR. In addition, the IC50 at Itk, at Lck and on Kdr was above 12.3 µM each time.
